Measured values: patent US20240247318A1, “METHODS FOR DETECTING INACTIVATION OF THE HOMOLOGOUS REC[…] (BRCA1/2) IN HUMAN TUMORS” (Institute Curie, priority 2012, published 2024)

Tested on: triple-negative breast tumors
Assay: clinical trial of Cisplatin treatment of patients with triple-negative breast tumors (GSE28330)
Type: in vivo, human
Conditions: number of patients
Procedure: Two publically available data sets from clinical trial of Cisplatin treatment of patients with triple-negative breast tumors [GSE28330 GEO database][59] were processed and the number of LST_10 Mb was calculated for each tumor with good quality of measured profile. Genomic profiles were measured by two types of chip: Affymetrix Oncoscan 70K (Dataset 2) and Oncoscan 300K (Dataset 1). Information about mutational status of BRCA1/2 was available for some tumors. Response to treatment was measured by Miller-Payne score, where 4 and 5 were considered as “positive response”, while scores<4 were considered as “no response” Case by case and summary results are presented in Table 2 and Tables 3-5 (statistical comparisons were performed by the Fisher exact test).

N.N.[Cl][Pt][Cl] [Cisplatin, cisplatin]
Non Responders (BRCA1/2 inactivated tumors): 8
Responders (BRCA1/2 inactivated tumors): 9
Non Responders (LST_high tumors (LST_10 Mb)): 15
Responders (LST_high tumors (LST_10 Mb)): 18
Non Responders (LST_low tumors (LST_10 Mb)): 20
Responders (LST_low tumors (LST_10 Mb)): 1
Non Responders (NON BRCA1/2 or NA tumors): 27
Responders (NON BRCA1/2 or NA tumors): 10
